How the values were obtained:
[1] = tested on: inducible nitric oxide synthase (iNOS/NOS2); assay: iNOS expression in substantia nigra, Western blot and immunostaining; assay type: in vivo, C57BL/6 mice; conditions: MPTP-treated mice that also received diapocynin 300 mg/kg gavage
Description: For checking inflammatory and oxidative stress markers, mice were gavaged diapocynin (300 mg/kg dose) 1 day before MPTP treatment (pre-treatment) and continued for another 4 days of co-treatment with MPTP. In the sub-acute MPTP regimen, MPTP (25 mg/kg) was injected intraperitoneally once per day from day 2 to day 7. Control mice received saline at the same dosage.
Four days after MPTP treatment, mice were perfused with 4% paraformaldehyde (PFA) and post-fixed with PFA and 30% sucrose, respectively. Next, fixed brains were cut into 30 μm sections and kept in 30% sucrose-ethylene glycol solutions at −20° C. On the day of staining, sections were rinsed with phosphate-buffered saline (PBS) and incubated with different primary antibodies, including anti-IBA-1 (DAKO, Carpinteria, Calif.), anti-GFAP (Millipore, Billerica, Mass.), anti-iNOS (Santa Cruz Biotechnology, Santa Cruz, Calif.), anti-3NT (Millipore), anti-4HNE (R&D Systems, Minneapolis, Minn.) and anti-gp91phox (Santa Cruz Biotechnology) for overnight at 4° C. Appropriate secondary antibodies (Alexa Fluor 488, 594, or 555 from Invitrogen, Carlsbad, Calif.) were used followed by incubation with 10 μg/ml Hoechst 33342 for 5 min at room temperature to stain the nucleus. Sections were viewed under a Nikon inverted fluorescence microscope (model TE-2000U; Nikon, Tokyo, Japan). Images were captured with a SPOT digital camera (Diagnostic Instruments, Inc., Sterling Heights, Mich.).
Mice were sacrificed 4 days or 7 days after MPTP treatment and substantia nigra tissue was dissected out. Brain lysates containing equal amounts of protein were loaded in each lane and separated on a 10 to 12% SDS polyacrylamide gel, as described previously (48). After the separation, proteins were transferred to a nitrocellulose membrane and nonspecific binding sites were blocked by treating with Li-Cor Odyssey blocking buffer (Li-Cor Biosciences, Lincoln, Nebr.). The membranes were then incubated with different primary antibodies including anti-TH (Millipore), anti-iNOS (Calbiochem), anti-3NT (Millipore) and anti-4HNE (R&D Systems). […]

[2] = tested on: dopaminergic neurons in substantia nigra; assay: FLUORO-JADE B and tyrosine hydroxylase double labeling in substantia nigra; assay type: in vivo, C57BL/6 mice; conditions: MPTP- and diapocynin-treated mice; 7 days after final MPTP injection
Description: Six- to 8-week-old C57BL/6 mice weighing 24 to 28 g were housed in standard conditions of constant temperature (22±1° C.), humidity (relative, 30%), and a 12-h light/dark cycle. Mice were allowed free access to food and water. Use of the animals and protocol procedures were approved and supervised by the Committee on Animal Care at Iowa State University (Ames, Iowa). For neurodegeneration studies, mice either received diapocynin (300 mg/kg dose) by oral gavage for 1 day (pre-treatment before MPTP administration), 5 days (co-treatment with MPTP), or 7 days (post-treatment after MPTP).
FLUORO-JADE B® and tyrosine hydroxylase (TH) double-labeling was performed in substantia nigra sections, as described previously (58). In brief, 7 days after the final MPTP injection, mice were sacrificed and perfused with 4% PFA and post-fixed with PFA and 30% sucrose, respectively. Fixed brains were cut into 30 μm sections and kept in 30% sucrose-ethylene glycol solutions at −20° C. On the day of staining, sections were rinsed with PBS and incubated with anti-TH antibody (Millipore, mouse monoclonal, dilution 1;1600) followed by Alexa Fluor 568 donkey anti-mouse secondary antibody (Invitrogen). […] Sections were viewed under a Nikon inverted fluorescence microscope (model TE-2000U). […]

TNF-α = assay: LPS-induced TNF-α release in primary microglia, LUMINEX immunoassay; assay type: cell-based, mouse; conditions: diapocynin 10 μM, LPS 24 hr
Description: Primary microglia were obtained from 1-2 day old C57/b16 mouse pups. Upon collection, whole brains were kept in ice-cold DMEM-F12 medium containing 10% FBS, 1× sodium pyruvate, 1× NEAAs, 100 units pen/strep, and Q. After collection, the brains were placed in 0.25% trypsin-EDTA and incubated at 37° C., with gentle shaking every 5-10 min. After 30 min, the trypsin was removed, and the brains are washed in warmed medium twice. After washing, medium was added to the brains, and the brains were homogenized using gentle pipetting, starting with a 25 ml pipette and moving to smaller pipette tips as the brains were broken up. When the brains were sufficiently homogenized to a single-cell suspension, they were filtered with a 70 μm nylon filter, which allowed microglia and astrocytes to be collected. The resultant cell suspension was plated in T-75 flasks and allowed to grow for 12-14 days at 37° C., 5% CO2. […]
Cytokine levels of BV2 and microglial cells treated with diapocynin were determined by LUMINEX® multiplex immunoassay. […]
Cytokine standards and controls were adjusted to 40 μl volume and the LUMINEX® Samples were run on a LUMINEX® 200 Total System and analyzed with Multiplex Analysis—LUMINEX® Software (Invitrogen, Carlsbad, Calif.).

COc1cc(C(C)=O)cc(-c2cc(C(C)=O)cc(OC)c2O)c1O [diapocynin]
colocalized cells of iNOS and GFAP in substantia nigra [1]: very few colocalized cells
colocalized cells of iNOS and IBA-1 in substantia nigra [1]: very few colocalized cells
staining of iNOS in substantia nigra [1]: marked decrease
FLUORO-JADE B-positive cells in substantia nigra [2]: fewer
TH-positive cells in substantia nigra [2]: increases
blocking LPS-induced release of TNF-α (TNF-α): very effective

— patent US8962600B2, “Neuroprotective compounds and their use” (The Medical College of Wisconsin, Inc., priority 2009, dated 2015)
